Calls of active or inactive are those of the source.
Columns and labels:
[1] = target: T1, DNA repair and recombination protein RAD54-like (Homo sapiens, UniProt Q92698); assay: RAD54 Holliday junction migration blockers – biochemical, fluorescence, cherry-picked samples, dose series, confirmation (AID 651657); type: functional
T1 sequence (Q92698 whole entry): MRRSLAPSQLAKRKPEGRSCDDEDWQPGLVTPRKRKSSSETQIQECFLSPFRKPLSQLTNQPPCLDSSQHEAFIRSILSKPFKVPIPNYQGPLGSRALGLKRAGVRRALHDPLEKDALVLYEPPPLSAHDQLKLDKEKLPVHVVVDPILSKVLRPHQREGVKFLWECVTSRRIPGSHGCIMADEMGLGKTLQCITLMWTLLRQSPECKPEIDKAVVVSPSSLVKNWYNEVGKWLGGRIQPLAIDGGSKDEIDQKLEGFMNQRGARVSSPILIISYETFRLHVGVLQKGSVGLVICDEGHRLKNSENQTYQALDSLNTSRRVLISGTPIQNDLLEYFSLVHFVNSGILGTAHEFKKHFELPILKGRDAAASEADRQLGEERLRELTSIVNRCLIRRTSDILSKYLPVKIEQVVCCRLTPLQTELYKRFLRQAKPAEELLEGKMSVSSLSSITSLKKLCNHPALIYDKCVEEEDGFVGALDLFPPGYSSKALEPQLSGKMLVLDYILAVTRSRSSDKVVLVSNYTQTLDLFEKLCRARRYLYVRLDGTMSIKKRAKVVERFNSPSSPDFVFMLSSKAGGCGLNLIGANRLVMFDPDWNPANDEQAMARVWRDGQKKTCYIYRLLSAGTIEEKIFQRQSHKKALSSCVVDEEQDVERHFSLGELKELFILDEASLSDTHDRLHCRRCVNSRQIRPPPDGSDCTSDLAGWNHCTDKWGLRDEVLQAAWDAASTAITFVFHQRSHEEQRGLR

Cytochrome P450 2D6 = Cytochrome P450 2D6 (Homo sapiens, UniProt P10635);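 further: CYP2D6 member of a cytochrome P450 panel assay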
[2] = target: Glucose-6-phosphate 1-dehydrogenase (Homo sapiens, UniProt P11413); assay: inhibition of Homo sapiens G6PD, dose series – biochemical, fluorescence, selectivity assay for P. falciparum G6PD inhibitor project, dose response (AID 504792); type: functional
[3] = target: Ras and Rab interactor 1/Tyrosine-protein kinase ABL1 (Homo sapiens, UniProt P00519+Q13671); type: functional;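 further: biochemical TR-FRET dose-response test measuring inhibition of binding between Rin1 and Abl proteins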
Genome polyprotein = Genome polyprotein (dengue virus type 2, UniProt P29990); assay: flavivirus cap methylation enzyme inhibition – biochemical, confirmation dose response, primary screen (AID 588689); type: functional
[4] = target: Beta-2 adrenergic receptor (Homo sapiens, UniProt P07550); assay: ADRB2 activation measured by internalization – cell-based, FAP fluorogen, flow cytometry, cherry pick 1, dose response (AID 588763); type: functional
[5] = target: T2, RNA-binding protein pos-1 (Caenorhabditis elegans, UniProt G5EF15); assay: disruptors of C. elegans POS-1 RNA interaction – biochemical, fluorescence polarization, dose response (AID 1964);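 further: purified POS-1 fused to maltose binding protein made in E. coli; potency of compounds blocking POS-1 binding to fluorescent RNA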
T2 sequence (G5EF15 whole entry): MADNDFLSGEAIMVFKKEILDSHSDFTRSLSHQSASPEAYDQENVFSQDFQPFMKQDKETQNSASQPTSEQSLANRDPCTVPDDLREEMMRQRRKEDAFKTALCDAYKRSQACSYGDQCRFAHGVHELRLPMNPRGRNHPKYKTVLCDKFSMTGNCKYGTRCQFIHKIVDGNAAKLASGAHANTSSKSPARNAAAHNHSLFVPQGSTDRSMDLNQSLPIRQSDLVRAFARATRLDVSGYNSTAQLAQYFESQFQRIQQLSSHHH

[6] = target: T3, Zinc finger protein mex-5 (Caenorhabditis elegans, UniProt Q9XUB2); assay: potency of MEX-5 RNA-binding blockers – biochemical, C. elegans, fluorescence polarization, dose response (AID 1960)
T3 sequence (Q9XUB2 whole entry): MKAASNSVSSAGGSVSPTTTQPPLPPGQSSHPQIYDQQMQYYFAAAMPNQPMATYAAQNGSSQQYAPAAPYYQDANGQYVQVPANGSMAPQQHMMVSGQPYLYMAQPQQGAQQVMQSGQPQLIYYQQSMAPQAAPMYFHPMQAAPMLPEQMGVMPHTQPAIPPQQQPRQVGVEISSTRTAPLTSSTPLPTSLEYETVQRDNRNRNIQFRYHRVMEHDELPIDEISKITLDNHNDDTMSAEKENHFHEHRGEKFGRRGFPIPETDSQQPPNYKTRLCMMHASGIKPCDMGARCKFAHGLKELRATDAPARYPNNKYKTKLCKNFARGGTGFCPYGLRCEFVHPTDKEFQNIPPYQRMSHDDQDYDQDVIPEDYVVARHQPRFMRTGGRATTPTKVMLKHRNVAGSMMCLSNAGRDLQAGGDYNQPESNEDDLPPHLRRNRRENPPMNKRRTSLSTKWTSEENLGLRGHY

[7] = target: T4, Endoribonuclease toxin MazF (Escherichia coli K-12, UniProt P0AE70); assay: activation of MazEF endoribonuclease cleavage – biochemical, fluorescence, single-stranded RNA substrate, uHTS hits, dose response (AID 588481); type: functional
T4 sequence (P0AE70 whole entry): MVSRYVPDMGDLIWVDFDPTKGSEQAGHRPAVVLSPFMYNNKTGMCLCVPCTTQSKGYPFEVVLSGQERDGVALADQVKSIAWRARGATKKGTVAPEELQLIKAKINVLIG

[8] = target: T4, Endoribonuclease toxin MazF; assay: substrate-only fluorescence increase artefacts – biochemical, single-stranded RNase substrate, counter-screen for MazEF activator project, dose response (AID 588502); type: functional
[9] = target: T5, Corticotropin-releasing factor receptor 2/Corticotropin-releasing factor-binding protein (Homo sapiens, UniProt P24387+Q13324); assay: activators of CRF receptor 2 with binding protein – uHTS hits, confirmation (AID 602473); type: functional; conditions: read-out: EC50_Mean
T5 sequence (Q13324 whole entry): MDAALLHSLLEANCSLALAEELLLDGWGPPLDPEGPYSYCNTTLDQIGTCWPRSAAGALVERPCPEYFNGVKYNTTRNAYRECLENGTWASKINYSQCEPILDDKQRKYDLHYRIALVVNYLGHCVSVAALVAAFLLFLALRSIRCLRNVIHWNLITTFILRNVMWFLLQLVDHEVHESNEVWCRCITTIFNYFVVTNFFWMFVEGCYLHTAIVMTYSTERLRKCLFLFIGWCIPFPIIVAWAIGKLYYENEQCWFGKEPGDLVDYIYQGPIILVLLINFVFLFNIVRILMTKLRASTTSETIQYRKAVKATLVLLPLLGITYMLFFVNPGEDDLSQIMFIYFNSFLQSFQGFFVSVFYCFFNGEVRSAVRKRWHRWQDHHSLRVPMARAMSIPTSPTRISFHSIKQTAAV
T5 sequence (P24387 whole entry): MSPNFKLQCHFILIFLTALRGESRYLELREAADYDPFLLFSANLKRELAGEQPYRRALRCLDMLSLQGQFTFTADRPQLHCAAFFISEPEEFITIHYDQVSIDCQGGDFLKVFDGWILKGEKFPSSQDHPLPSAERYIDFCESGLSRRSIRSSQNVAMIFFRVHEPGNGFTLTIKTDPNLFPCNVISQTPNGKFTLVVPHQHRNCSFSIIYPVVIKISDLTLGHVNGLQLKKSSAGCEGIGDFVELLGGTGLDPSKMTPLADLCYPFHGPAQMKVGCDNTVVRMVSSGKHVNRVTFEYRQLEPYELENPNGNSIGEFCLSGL

Cytochrome P450 3A4 = Cytochrome P450 3A4 (Homo sapiens, UniProt P08684);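 further: CYP3A4 tested as one member of a cytochrome P450 panel screen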
Cytochrome P450 2C9 = Cytochrome P450 2C9 (Homo sapiens, UniProt P11712)
[10] = inhibition of ARNT PAS-B/TACC3 complex formation – biochemical, AlphaScreen, cherry-picked samples, confirmation (AID 651703); type: functional, Homo sapiens;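 further: His-tagged ARNT PAS-B domain paired with GST-TACC3 E629A dimer coactivator fragment; potency of inhibitors that break up the complex and lower AlphaScreen signal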

Ras and Rab interactor 1/Tyrosine-protein kinase ABL1, sequence (P00519 whole entry): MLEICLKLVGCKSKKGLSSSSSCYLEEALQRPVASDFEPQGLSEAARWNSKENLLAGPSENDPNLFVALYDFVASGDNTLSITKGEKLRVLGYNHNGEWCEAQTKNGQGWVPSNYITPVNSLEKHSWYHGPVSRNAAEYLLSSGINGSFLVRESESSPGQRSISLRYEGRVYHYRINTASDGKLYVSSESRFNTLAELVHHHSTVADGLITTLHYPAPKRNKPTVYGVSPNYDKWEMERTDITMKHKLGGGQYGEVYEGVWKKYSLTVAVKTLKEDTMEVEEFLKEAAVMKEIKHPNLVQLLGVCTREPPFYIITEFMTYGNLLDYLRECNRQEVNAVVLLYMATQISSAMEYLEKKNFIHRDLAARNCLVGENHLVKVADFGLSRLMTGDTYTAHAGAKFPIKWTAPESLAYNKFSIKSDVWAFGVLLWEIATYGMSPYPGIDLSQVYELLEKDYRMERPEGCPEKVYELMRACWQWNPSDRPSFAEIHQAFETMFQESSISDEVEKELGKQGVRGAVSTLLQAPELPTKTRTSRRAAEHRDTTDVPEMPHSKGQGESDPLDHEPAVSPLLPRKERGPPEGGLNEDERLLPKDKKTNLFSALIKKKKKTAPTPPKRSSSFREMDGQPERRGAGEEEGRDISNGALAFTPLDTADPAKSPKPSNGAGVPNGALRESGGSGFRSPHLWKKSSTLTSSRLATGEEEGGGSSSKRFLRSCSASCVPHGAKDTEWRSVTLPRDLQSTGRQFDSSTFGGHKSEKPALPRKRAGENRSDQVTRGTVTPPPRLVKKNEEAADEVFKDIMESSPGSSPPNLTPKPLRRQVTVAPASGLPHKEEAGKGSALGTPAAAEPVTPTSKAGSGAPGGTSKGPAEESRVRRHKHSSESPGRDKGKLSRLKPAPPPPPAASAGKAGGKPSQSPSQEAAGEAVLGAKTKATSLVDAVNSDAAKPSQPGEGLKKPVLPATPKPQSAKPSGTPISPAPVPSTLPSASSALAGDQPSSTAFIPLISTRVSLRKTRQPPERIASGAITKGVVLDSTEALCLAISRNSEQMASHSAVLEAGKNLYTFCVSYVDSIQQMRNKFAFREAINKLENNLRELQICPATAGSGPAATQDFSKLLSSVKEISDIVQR
Ras and Rab interactor 1/Tyrosine-protein kinase ABL1, sequence (Q13671 whole entry): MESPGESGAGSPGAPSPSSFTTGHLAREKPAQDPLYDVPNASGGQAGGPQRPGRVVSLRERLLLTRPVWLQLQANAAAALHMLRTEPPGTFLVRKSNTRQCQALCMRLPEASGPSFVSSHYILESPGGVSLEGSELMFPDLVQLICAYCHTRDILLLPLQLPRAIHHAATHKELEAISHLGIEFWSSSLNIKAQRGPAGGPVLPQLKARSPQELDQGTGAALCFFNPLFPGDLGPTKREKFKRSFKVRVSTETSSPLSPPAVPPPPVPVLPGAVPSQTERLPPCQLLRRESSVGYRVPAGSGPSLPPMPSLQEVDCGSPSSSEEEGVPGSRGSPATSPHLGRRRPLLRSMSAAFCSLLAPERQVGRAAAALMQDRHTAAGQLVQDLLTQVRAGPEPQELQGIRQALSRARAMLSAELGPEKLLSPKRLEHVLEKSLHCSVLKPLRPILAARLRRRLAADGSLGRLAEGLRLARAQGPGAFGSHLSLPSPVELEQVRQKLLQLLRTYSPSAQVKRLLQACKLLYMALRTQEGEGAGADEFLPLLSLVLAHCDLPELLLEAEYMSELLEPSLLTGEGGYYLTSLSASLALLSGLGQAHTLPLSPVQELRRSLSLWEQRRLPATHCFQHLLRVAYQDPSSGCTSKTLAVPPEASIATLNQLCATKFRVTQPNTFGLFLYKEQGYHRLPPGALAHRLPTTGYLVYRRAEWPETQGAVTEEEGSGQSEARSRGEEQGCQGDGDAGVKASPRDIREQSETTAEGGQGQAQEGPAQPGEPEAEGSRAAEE
Cytochrome P450 2D6, sequence (P10635 whole entry): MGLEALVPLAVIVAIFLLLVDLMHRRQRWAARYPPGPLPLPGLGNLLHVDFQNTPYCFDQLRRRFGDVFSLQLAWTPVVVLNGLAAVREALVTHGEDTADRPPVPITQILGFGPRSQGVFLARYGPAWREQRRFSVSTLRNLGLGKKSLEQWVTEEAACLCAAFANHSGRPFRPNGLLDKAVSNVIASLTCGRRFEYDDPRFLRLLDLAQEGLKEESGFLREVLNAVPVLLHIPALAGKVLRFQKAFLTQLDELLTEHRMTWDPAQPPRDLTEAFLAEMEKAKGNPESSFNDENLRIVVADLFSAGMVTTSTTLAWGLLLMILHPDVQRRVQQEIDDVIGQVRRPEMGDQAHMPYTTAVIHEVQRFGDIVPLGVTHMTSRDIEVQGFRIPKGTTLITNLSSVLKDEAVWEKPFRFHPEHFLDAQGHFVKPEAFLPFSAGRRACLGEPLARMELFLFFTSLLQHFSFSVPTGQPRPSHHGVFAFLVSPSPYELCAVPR
Genome polyprotein, sequence (P29990 2492-3391 limits assumed): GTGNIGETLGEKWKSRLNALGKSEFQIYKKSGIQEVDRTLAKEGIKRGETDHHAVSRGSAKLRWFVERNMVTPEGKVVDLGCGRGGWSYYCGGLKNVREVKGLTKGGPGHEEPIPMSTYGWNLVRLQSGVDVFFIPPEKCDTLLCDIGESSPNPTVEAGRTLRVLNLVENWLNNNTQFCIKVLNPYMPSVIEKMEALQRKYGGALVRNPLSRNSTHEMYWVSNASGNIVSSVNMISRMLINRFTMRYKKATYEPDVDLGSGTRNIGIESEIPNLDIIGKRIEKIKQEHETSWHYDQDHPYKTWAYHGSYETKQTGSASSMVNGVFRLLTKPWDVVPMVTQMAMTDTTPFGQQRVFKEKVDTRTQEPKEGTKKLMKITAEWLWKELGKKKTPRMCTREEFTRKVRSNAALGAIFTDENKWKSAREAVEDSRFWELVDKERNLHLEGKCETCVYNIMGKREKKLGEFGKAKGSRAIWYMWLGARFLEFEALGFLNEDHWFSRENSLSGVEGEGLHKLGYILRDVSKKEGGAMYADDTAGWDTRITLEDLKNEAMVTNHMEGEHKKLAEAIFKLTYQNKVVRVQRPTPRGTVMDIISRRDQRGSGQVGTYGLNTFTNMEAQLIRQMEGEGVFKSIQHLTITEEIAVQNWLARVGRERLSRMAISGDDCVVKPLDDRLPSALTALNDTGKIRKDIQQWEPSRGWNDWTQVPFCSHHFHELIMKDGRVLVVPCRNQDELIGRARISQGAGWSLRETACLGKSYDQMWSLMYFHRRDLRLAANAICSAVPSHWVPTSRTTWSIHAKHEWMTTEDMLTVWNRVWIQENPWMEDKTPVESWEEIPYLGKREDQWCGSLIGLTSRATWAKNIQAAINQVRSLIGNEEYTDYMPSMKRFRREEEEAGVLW
Beta-2 adrenergic receptor, sequence (P07550 whole entry, the tested form may be a part): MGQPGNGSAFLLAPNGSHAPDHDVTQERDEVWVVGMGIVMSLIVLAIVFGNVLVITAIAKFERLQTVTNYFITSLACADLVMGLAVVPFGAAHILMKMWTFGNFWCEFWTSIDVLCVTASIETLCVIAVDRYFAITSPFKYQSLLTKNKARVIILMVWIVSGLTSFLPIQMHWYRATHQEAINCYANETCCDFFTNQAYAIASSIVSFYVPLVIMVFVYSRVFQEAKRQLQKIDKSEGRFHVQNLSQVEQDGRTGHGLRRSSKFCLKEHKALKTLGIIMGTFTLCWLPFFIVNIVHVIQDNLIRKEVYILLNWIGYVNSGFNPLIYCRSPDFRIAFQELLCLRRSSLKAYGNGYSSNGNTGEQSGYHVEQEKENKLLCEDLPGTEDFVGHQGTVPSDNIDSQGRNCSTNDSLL
Cytochrome P450 3A4, sequence (P08684 whole entry): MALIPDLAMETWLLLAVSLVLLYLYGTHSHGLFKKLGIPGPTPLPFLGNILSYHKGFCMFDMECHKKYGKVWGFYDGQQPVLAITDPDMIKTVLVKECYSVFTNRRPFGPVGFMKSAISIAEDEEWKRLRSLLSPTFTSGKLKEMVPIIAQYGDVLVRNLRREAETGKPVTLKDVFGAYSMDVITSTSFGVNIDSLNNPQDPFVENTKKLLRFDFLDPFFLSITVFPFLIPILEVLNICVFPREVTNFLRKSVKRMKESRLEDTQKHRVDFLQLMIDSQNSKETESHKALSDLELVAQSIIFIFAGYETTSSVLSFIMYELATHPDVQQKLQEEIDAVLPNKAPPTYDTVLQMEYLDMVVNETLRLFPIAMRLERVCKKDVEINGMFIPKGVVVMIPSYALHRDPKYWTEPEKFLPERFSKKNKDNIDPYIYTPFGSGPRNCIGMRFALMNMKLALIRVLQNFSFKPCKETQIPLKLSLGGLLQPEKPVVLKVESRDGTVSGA
Cytochrome P450 2C9, sequence (P11712 whole entry, the tested form may be a part): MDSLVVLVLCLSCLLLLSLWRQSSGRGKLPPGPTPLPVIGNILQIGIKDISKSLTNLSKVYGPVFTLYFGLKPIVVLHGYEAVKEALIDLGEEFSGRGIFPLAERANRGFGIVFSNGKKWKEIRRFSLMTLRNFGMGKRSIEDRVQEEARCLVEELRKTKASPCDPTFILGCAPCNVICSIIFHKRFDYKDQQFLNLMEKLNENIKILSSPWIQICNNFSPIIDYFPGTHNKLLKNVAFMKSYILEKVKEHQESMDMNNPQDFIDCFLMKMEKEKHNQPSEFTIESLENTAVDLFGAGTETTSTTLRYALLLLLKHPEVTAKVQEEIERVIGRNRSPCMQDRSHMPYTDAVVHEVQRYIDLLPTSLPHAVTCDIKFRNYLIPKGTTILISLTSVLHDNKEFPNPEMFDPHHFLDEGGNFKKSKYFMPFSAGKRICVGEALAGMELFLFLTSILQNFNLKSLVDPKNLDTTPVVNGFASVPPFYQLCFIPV

Question: Which AC50 [1] does the source give for CN(C)c1cc(NC(=O)CNC(C)(C)C)c2ccccc2n1 here?
Answer: The AC50 was 16.4 µM (active).

Question: With COC(=O)C/C=C\[C@@H](C)[C@@H](/C=N\OC[C@@H](O)COCc1ccco1)NS(=O)(=O)c1ccc(C)cc1 as the compound, how does the AC50 (Cytochrome P450 2D6) read?
Answer: The AC50 was “inconclusive”.

Question: Which AC50 (Cytochrome P450 2D6) does the source give for CC[C@]1(O)C[C@H]2CN(CCc3c([nH]c4ccccc34)[C@](C(=O)OC)(c3cc4c(cc3OC)N(C=O)[C@H]3[C@@](O)(C(=O)OC)[C@H](OC(C)=O)[C@@]5(CC)C=CCN6CC[C@]43[C@H]65)C2)C1 here?
Answer: Its AC50 is “inconclusive”.

Question: Which IC50 [2] does the source give for CC1CCc2[nH]c3ccc(C(=O)N(C)CC(=O)Nc4ccccc4C(F)(F)F)cc3c2C1 (stereo unspecified) here?
Answer: Its IC50 is > 80 µM (inactive).

Question: For CCOC(=O)CN1C(=O)NC2NC(=O)NC21 (stereo unspecified), which IC50 [3] is on record?
Answer: The IC50 was 23.8 µM (inactive).

Question: Which IC50 (Genome polyprotein) does the source give for O=C(O)COc1ccccc1/C=C1\C(=O)NC(=O)N(CCC2=CCCCC2)C1=O here?
Answer: Its IC50 is > 100 µM (active).

Question: For COCCc1ncc(CN2CCC(C(=O)Nc3ccc(-n4cccn4)cc3)CC2)cn1, which EC50 [4] is on record?
Answer: Its EC50 is 1.29 µM (active).

Question: Which results are given for CC(=O)c1cc(NC(=O)c2cccc(C(F)(F)F)c2)c(=O)oc1/C=C/N(C)C?
Answer: EC50 [5]: > 300 µM (not active); EC50 [6]: > 300 µM (inconclusive); EC50 [7]: > 99 µM (inactive); EC50 [8]: 22.2 µM (inactive); EC50 [9]: 5.91 µM (active); AC50 (Cytochrome P450 3A4): 6.31 µM (inconclusive); AC50 (Cytochrome P450 2C9): inconclusive

Question: Which AC50 [10] does the source give for O=C(NCCCn1ccnc1)C(=O)NCC(c1ccco1)N1CCN(c2ccc(F)cc2)CC1 (stereo unspecified) here?
Answer: The AC50 was 99.3 µM (active).

Question: Which IC50 [3] does the source give for CCC1(CC)C(=O)C2=C3C1[C@H](C(=O)OC)C=C(C(=O)OC)C[C@H]3n1c(=O)n(-c3ccccc3)c(=O)n1[C@H]2C (stereo partly specified) here?
Answer: Its IC50 is 22.4 µM (inactive).

From ChEMBL document CHEMBL1201862, “PubChem BioAssay data set” (2004)
